Assay results: ChEMBL document CHEMBL1146649, “New highly active taxoids from 9 beta-dihydrobaccatin-9,10-acetals. Part 5” (2004)
In brackets after ≈: the same amount, converted by molar mass.

Experiments:
[1] = tested on: Mus musculus; assay: Maximum rate of body weight loss after peroral administration of 17.8 mg/kg of compound in mice; assay type: functional; details: route oral
[2] = tested on: B16; assay: Antitumor activity of 17.8 mg/kg of perorally administered compound against B16 melanoma BL6 cells implanted into mice, value reported is percent compared to control; assay type: functional, Mus musculus; details: route oral
[3] = tested on: Mus musculus; assay: Antitumor activity of 26.7 mg/kg of intravenously administered compound against B16 melanoma BL6 cells implanted into mice, value reported is percent compared to control; assay type: functional; details: route intravenous
[4] = tested on: Mus musculus; assay: Antitumor activity of 17.8 mg/kg of intravenously administered compound against B16 melanoma BL6 cells implanted into mice, value reported is percent compared to control; assay type: functional; details: route intravenous
[5] = tested on: PC-12; assay: Concentration required to inhibit human PC-12 cell line growth by 50% at 72 hr continuous exposure; assay type: functional; details: PC-12, 72 h
[6] = tested on: Mus musculus; assay: Maximum rate of body weight loss after intravenous administration of 7.9 mg/kg of compound in mice; assay type: functional
[7] = tested on: Mus musculus; assay: Number of mice died at 40.0 mg/kg of peroral dose of compound among the total 6 mice tested; assay type: functional; details: route oral
[8] = tested on: P388; assay: Concentration required to inhibit mouse P388 cell line growth by 50% at 72 hr continuous exposure; assay type: functional; details: P388, 72 h
[9] = tested on: Mus musculus; assay: Number of mice died at 26.7 mg/kg of intravenous dose of compound among the total 6 mice tested; assay type: functional
[10] = tested on: Mus musculus; assay: Antitumor activity of 26.7 mg/kg of perorally administered compound against B16 melanoma BL6 cells implanted into mice, value reported is percent compared to control; assay type: functional; details: route oral
[11] = tested on: Mus musculus; assay: Number of mice died at 17.8 mg/kg of peroral dose among the total 6 mice tested; assay type: functional; details: route oral
[12] = tested on: Mus musculus; assay: Maximum rate of body weight loss after intravenous administration of 11.9 mg/kg of compound in mice; <0 indicates no weight loss; assay type: functional
[13] = tested on: Mus musculus; assay: Number of mice died at 26.7 mg/kg of peroral dose of compound among the total 6 mice tested; assay type: functional; details: route oral
[14] = tested on: Mus musculus; assay: Maximum rate of body weight loss after peroral administration of 11.9 mg/kg of compound in mice; <0 indicates no weight loss; assay type: functional; details: route oral
[15] = tested on: PC-6; assay: Concentration required to inhibit human PC-6/VP1-1 cell line growth by 50% at 72 hr exposure; assay type: functional; details: PC-6, 72 h
[16] = tested on: Mus musculus; assay: Maximum rate of body weight loss after peroral administration of 26.7 mg/kg of compound in mice; assay type: functional; details: route oral
[17] = tested on: Mus musculus; assay: Maximum rate of body weight loss after intravenous administration of 26.7 mg/kg of compound in mice; assay type: functional
[18] = tested on: B16; assay: Antitumor activity of 11.9 mg/kg of intravenously administered compound against B16 melanoma BL6 cells implanted into mice, value reported is percent compared to control; assay type: functional, Mus musculus; details: route intravenous
[19] = tested on: Mus musculus; assay: Effective dose of intravenously administered compound against B16 melanoma BL6 cells implanted into mice; range is 7.9-17.8; assay type: functional; details: B16, iv
[20] = tested on: B16; assay: Antitumor activity of 11.9 mg/kg of perorally administered compound against B16 melanoma BL6 cells implanted into mice, value reported is percent compared to control; assay type: functional, Mus musculus; details: route oral
[21] = tested on: Mus musculus; assay: Number of mice died at 11.9 mg/kg of peroral dose, among the total 6 mice tested; assay type: functional; details: route oral
[22] = tested on: Mus musculus; assay: Number of mice died at 7.9 mg/kg of intravenous dose of compound among the total 6 mice tested; assay type: functional
[23] = tested on: Mus musculus; assay: Number of mice died at 11.9 mg/kg of intravenous dose, among the total 6 mice tested; assay type: functional
[24] = tested on: Mus musculus; assay: Maximum rate of body weight loss after intravenous administration of 17.8 mg/kg of compound in mice; assay type: functional
[25] = tested on: PC-6; assay: Concentration required to inhibit human PC-6 cell line growth by 50% at 72 hr continuous exposure; assay type: functional; details: PC-6, 72 h
[26] = tested on: Mus musculus; assay: Number of mice died at 17.8 mg/kg of intravenous dose among the total 6 mice tested; assay type: functional
[27] = tested on: PC-6; assay: Concentration required to inhibit human PC-6/VCR29-9 cell line growth by 50% at 72 hr exposure; assay type: functional; details: PC-6, 72 h
[28] = tested on: Mus musculus; assay: Antitumor activity of 7.9 mg/kg of intravenously administered compound against B16 melanoma BL6 cells implanted into mice, value reported is percent compared to control; assay type: functional; details: route intravenous
[29] = tested on: Mus musculus; assay: Effective dose of perorally administered compound against B16 melanoma BL6 cells implanted into mice; range is 11.9-26.7; assay type: functional; details: B16, po
[30] = tested on: Mus musculus; assay: Effective dose of intravenously administered compound against B16 melanoma BL6 cells implanted into mice; range is 7.8-17.8; assay type: functional; details: B16, iv
[31] = tested on: B16; assay: Effective dose of perorally administered compound against B16 melanoma BL6 cells implanted into mice; assay type: functional; details: Mus musculus, B16, po
[32] = tested on: Mus musculus; assay: Number of mice died at 7.9 mg/kg of peroral dose of compound among the total 6 mice tested; assay type: functional; details: route oral
[33] = tested on: Mus musculus; assay: Number of mice died at 5.3 mg/kg of intravenous dose of compound among the total 6 mice tested; assay type: functional
[34] = tested on: Mus musculus; assay: Maximum rate of body weight loss after peroral administration of 11.9 mg/kg of compound in mice; assay type: functional; details: route oral
[35] = tested on: Mus musculus; assay: Maximum rate of body weight loss after intravenous administration of 5.3 mg/kg of compound in mice; assay type: functional
[36] = tested on: Mus musculus; assay: Number of mice died at 5.3 mg/kg of peroral dose of compound among the total 6 mice tested; assay type: functional; details: route oral
[37] = tested on: Mus musculus; assay: Antitumor activity of 7.9 mg/kg of perorally administered compound against B16 melanoma BL6 cells implanted into mice, value reported is percent compared to control; assay type: functional; details: route oral
[38] = tested on: Mus musculus; assay: Maximum rate of body weight loss after intravenous administration of 11.9 mg/kg of compound in mice; assay type: functional
[39] = tested on: Mus musculus; assay: Maximum rate of body weight loss after peroral administration of 5.3 mg/kg of compound in mice; assay type: functional; details: route oral
[40] = tested on: Mus musculus; assay: Effective dose of intravenously administered compound against B16 melanoma BL6 cells implanted into mice; range is 5.3-11.9; assay type: functional; details: B16, iv
[41] = tested on: Mus musculus; assay: Antitumor activity of 5.3 mg/kg of intravenously administered compound against B16 melanoma BL6 cells implanted into mice, value reported is percent compared to control; assay type: functional; details: route intravenous
[42] = tested on: Mus musculus; assay: Maximum rate of body weight loss after peroral administration of 7.9 mg/kg of compound in mice; assay type: functional; details: route oral
[43] = tested on: Mus musculus; assay: Antitumor activity of 5.3 mg/kg of perorally administered compound against B16 melanoma BL6 cells implanted into mice, value reported is percent compared to control; assay type: functional; details: route oral
[44] = tested on: Mus musculus; assay: Effective dose of perorally administered compound against B16 melanoma BL6 cells implanted into mice; range is 7.9-11.0; assay type: functional; details: B16, po
[45] = tested on: B16; assay: Effective dose of intravenously administered compound against B16 melanoma BL6 cells implanted into mice; assay type: functional; details: Mus musculus, B16, iv
[46] = tested on: Mus musculus; assay: Effective dose of perorally administered compound against B16 melanoma BL6 cells implanted into mice; range is 11.9-27.6; assay type: functional; details: B16, po
[47] = tested on: Mus musculus; assay: Antitumor activity of 600 mg/kg of perorally administered compound against B16 melanoma BL6 cells implanted into mice, value reported is percent compared to control; assay type: functional; details: route oral
[48] = tested on: Mus musculus; assay: Maximum rate of body weight loss after peroral administration of 600 mg/kg of compound in mice; <0 indicates no body weight loss; assay type: functional; details: route oral
[49] = tested on: Mus musculus; assay: Number of mice died at 600 mg/kg of peroral dose of compound among the total 6 mice tested; assay type: functional; details: route oral
[50] = tested on: Mus musculus; assay: Number of mice died at 100 mg/kg of peroral dose of compound among the total 6 mice tested; assay type: functional; details: route oral
[51] = tested on: Mus musculus; assay: Maximum rate of body weight loss after peroral administration of 100 mg/kg of compound in mice; assay type: functional; details: route oral
[52] = tested on: Mus musculus; assay: Antitumor activity of 100 mg/kg of perorally administered compound against B16 melanoma BL6 cells implanted into mice, value reported is percent compared to control; assay type: functional; details: route oral

SMILES	BWLmax [1] [%]	IR [2] [%]	GI50 [5] [ng/mL]	BWLmax [6] [%]	GI50 [8] [ng/mL]	Mortality [11]	GI50 [15] [ng/mL]	IR [18] [%]	IR [20] [%]	Mortality [21]	Mortality [22]	Mortality [23]	GI50 [25] [ng/mL]	Mortality [26]	GI50 [27] [ng/mL]	IR [28] [%]	other results
CC(=O)O[C@@]12CO[C@@H]1CC[C@@]1(C)[C@@H]3O[C@H](CN4CCOCC4)O[C@@H]3C3=C(C)[C@@H](OC(=O)[C@H](O)[C@@H](NC(=O)OC(C)(C)C)c4nccs4)C[C@@](O)([C@@H](OCc4ccccc4)[C@@H]12)C3(C)C	8.8	97	0.13 (≈ 0.145 nM)	1.5	0.06 (≈ 0.0668 nM)	0	19.7 (≈ 21.9 nM)	85.7	77.9	0	0	0	0.12 (≈ 0.134 nM)	0	1.37 (≈ 1.53 nM)	79.1	IR [3]: 98.3%; IR [4]: 96.9%; Mortality [7]: 6; Mortality [9]: 2; IR [10]: 97.8%; BWLmax [12]: <0%; Mortality [13]: 0; BWLmax [14]: <0%; BWLmax [16]: 10%; BWLmax [17]: 15%; ED50 [19]: 17.8 mg/kg; BWLmax [24]: 7.1%; ED50 [29]: 26.7 mg/kg
CC(=O)O[C@@]12CO[C@@H]1CC[C@@]1(C)[C@@H]3O[C@H](CN(C)C)O[C@@H]3C3=C(C)[C@@H](OC(=O)[C@H](O)[C@@H](NC(=O)OC(C)(C)C)c4nccs4)C[C@@](O)([C@@H](OCc4ccccc4)[C@@H]12)C3(C)C			0.35 (≈ 0.409 nM)		0.25 (≈ 0.292 nM)		39.1 (≈ 45.7 nM)						0.27 (≈ 0.315 nM)		2.81 (≈ 3.28 nM)		ED50 [30]: 17.8 mg/kg; ED50 [31]: 11.9 mg/kg
CC(=O)O[C@@]12CO[C@@H]1CC[C@@]1(C)[C@@H]3O[C@H](CN(C)C)O[C@@H]3C3=C(C)[C@@H](OC(=O)[C@H](O)[C@@H](NC(=O)OC(C)(C)C)c4cccc(F)n4)C[C@@](O)([C@@H](OCc4ccccc4)[C@@H]12)C3(C)C	13.9	94.8	0.62 (≈ 0.714 nM)	2.9	0.67 (≈ 0.772 nM)	5	21.3 (≈ 24.5 nM)	95.6	97.4	0	0	0	0.38 (≈ 0.438 nM)	6	2.58 (≈ 2.97 nM)	91.5	Mortality [32]: 0; Mortality [33]: 0; BWLmax [34]: 12.9%; BWLmax [35]: 2%; Mortality [36]: 0; IR [37]: 91.5%; BWLmax [38]: 12%; BWLmax [39]: <0%; ED50 [40]: 11.9 mg/kg; IR [41]: 67.6%; BWLmax [42]: 3.8%; IR [43]: 42.4%; ED50 [44]: 11 mg/kg
CC(=O)O[C@@]12CO[C@@H]1CC[C@@]1(C)[C@@H]3O[C@H](CNC4CCC4)O[C@@H]3C3=C(C)[C@@H](OC(=O)[C@H](O)[C@@H](NC(=O)OC(C)(C)C)c4ccccn4)C[C@@](O)([C@@H](OCc4ccccc4)[C@@H]12)C3(C)C			1.45 (≈ 1.66 nM)		0.56 (≈ 0.639 nM)		81.7 (≈ 93.3 nM)						0.83 (≈ 0.947 nM)		4.88 (≈ 5.57 nM)		ED50 [45]: 7.9 mg/kg; ED50 [46]: 27.6 mg/kg
CC(=O)O[C@@]12CO[C@@H]1C[C@H](O)[C@@]1(C)C(=O)[C@H](O)C3=C(C)[C@@H](OC(=O)[C@H](O)[C@@H](NC(=O)OC(C)(C)C)c4ccccc4)C[C@@](O)([C@@H](OCc4ccccc4)[C@H]21)C3(C)C			19.1 (≈ 24.1 nM)		0.78 (≈ 0.982 nM)		442 (≈ 557 nM)						0.26 (≈ 0.327 nM)		62.1 (≈ 78.2 nM)		IR [47]: 6.2%; BWLmax [48]: <0%; Mortality [49]: 0; Mortality [50]: 0; BWLmax [51]: <0%; IR [52]: 95.1%
